Data set [1] is described as follows: Measurement of particle size and polydispersity index of lipid particles (Zetasizer Nano ZS). It counts as physicochemical. Particulars: siRNA-containing lipid particles made with the named phospholipid A, phospholipid B and cholesterol; for PDI / Particle size (nm): diluted 50-fold with RNase-free water. As for the experimental part:
(§1) siRNA was added to 1 mM citrate buffer (pH 4.0), thereby preparing an acidic aqueous solution of siRNA (25° C., siRNA concentration: 301.2 nM). Separately, lipids were added to ethanol, thereby preparing a phospholipid alcohol solution (25° C., lipid concentration: 2.5 mM). The molar ratios of lipids were (1) DHSM-DEDA:DHSM:cholesterol (Chol)=45:10:45, (2) DHSM-PPZ:DOPC:cholesterol (Chol)=45:10:60, and (3) DOP-DEDA:DPPC:cholesterol (Chol)=45:10:45. A 4.15-fold volume of the acidic aqueous solution of siRNA was added to the phospholipid alcohol solution (siRNA/lipid molar ratio=1/7000), and a microchannel (KeyChem-Basic, YMC Co., Ltd.) was used to obtain lipid particles. Finally, ethanol was removed by dialysis.
The lipid particles were diluted 50-fold with RNase-free water, and then the particle size and polydispersity index (PDI) were measured with a Zetasizer Nano ZS (Malvern). The lipid particles were also diluted 50-fold with a buffer (pH=4.0, 5.0, 6.0, or 7.0), and the ζ-potential was then measured.

The nature of data set [2]: siRNA encapsulation efficiency of lipid particles (RiboGreen reagent). It counts as physicochemical. As to conditions: siRNA-containing lipid particles made with the named phospholipid A; siRNA/lipid molar ratio 1/7000; with or without 2% Triton-X 100. The protocol:
as §1
Further, the encapsulation efficiency of siRNA was measured in the following manner. The measurement was performed using an RNA assay reagent (RiboGreen reagent, Thermo Fisher Scientific), specifically as described below. […] The plate was shaken for 5 minutes, and the fluorescence intensity in each well was measured. The encapsulation efficiency of siRNA in the lipid particles was calculated using the following equation: the encapsulation efficiency (%)=(the fluorescence intensity of total siRNA−the fluorescence intensity of free siRNA)/(the fluorescence intensity of total siRNA), with the measured fluorescence intensity.

On to “(2S,3R)-3-hydroxy-2-stearamidooctadecyl (2-(piperazino)ethyl) phosphate [DHSM-PPZ]”, for which, in data set [1], the Particle size distribution entry was “Double peak”, the PDI is given as 0.16 ± 0.01 and the “Particle size (nm)” value stood at 111 ± 4 nm. Further, the “siRNA encapsulation efficiency (%)” value in data set [2] turned out to be 80 ± 7%.
Turning to “Dioleoylphosphate-Diethylenediamine Conjugate [DOP-DEDA, reference compound]”, in data set [1], the Particle size distribution entry is given as “Single peak”, the PDI turned out to be 0.11 ± 0.06 and the “Particle size (nm)” value stood at 100 ± 3 nm. The “siRNA encapsulation efficiency (%)” value in data set [2] turned out to be 98 ± 7%.
In the case of `CCCCCCCCCCCCCCCCCC(=O)N[C@@H](COP(=O)(O)OCCNCCN)[C@H](O)CCCCCCCCCCCCCCC` [DHSM-DEDA, (2S,3R)-3-hydroxy-2-stearamidooctadecyl (2-(2′-aminoethylenamine)ethyl) phosphate], in data set [1], the Particle size distribution entry is recorded as “Double peak”, the PDI was 0.09 ± 0.03 and the “Particle size (nm)” value came to 132 ± 37 nm.

These data come from patent publication US12565510B2, “Phospholipid” (NIPPON FINE CHEMICAL CO., LTD., priority 2021, dated 2026).
